Data reported in the NIST ThermoML archive (doi:10.1021/je5010643).

Legend:
[1] = 101.32 kPa, Liquid; for speed of sound: Frequency=3 MHz, Linear variable-path acoustic interferometer
[2] = refractive index (Na D-line) (dimensionless); conditions: 101.32 kPa, Liquid, Standard Abbe refractometry
[3] = xn = mol fraction of the nth substance listed; conditions: 101.32 kPa, Liquid, x1 = 1; for speed of sound: Frequency=3 MHz, Linear variable-path acoustic interferometer
[4] = refractive index (Na D-line) (dimensionless); xn = mol fraction of the nth substance listed; conditions: 101.32 kPa, Liquid, Standard Abbe refractometry, x1 = 1

C1COCCO1 [1,4-dioxane]
Conditions	mass density, [1] [kg/m3]	refractive index, [2]	speed of sound, [1] [m/s]
295.15 K	1030.86	1.4211	1357.7
298.15 K	1027.59	1.4197	1344.8
301.15 K	1024.32	1.4183	1331.9
304.15 K	1021.05	1.4168	1319
307.15 K	1017.78	1.4154	1306.2
310.15 K	1014.51	1.4138	1293.3
313.15 K	1011.24	1.4124	1280.4

C1COCCO1 [1,4-dioxane] + CC(C)C(=O)O
Conditions	mass density, [3] [kg/m3]	refractive index, [4]	speed of sound, [3] [m/s]
295.15 K	1030.86	1.4211	1357.7
298.15 K	1027.59	1.4197	1344.8
301.15 K	1024.32	1.4183	1331.9
304.15 K	1021.05	1.4168	1319
307.15 K	1017.78	1.4154	1306.2
310.15 K	1014.51	1.4138	1293.3
313.15 K	1011.24	1.4124	1280.4

CC(C)C(=O)O [2-methylpropanoic acid]
Conditions	mass density, [1] [kg/m3]	refractive index, [2]	speed of sound, [1] [m/s]
295.15 K	945.28	1.3919	1100.2
298.15 K	942.22	1.3907	1086
301.15 K	939.16	1.3895	1072.1
304.15 K	936.1	1.3883	1058.2
307.15 K	933.04	1.3872	1043.4
310.15 K	929.98	1.386	1030.8
313.15 K	926.92	1.3849	1015.2
